One series relates to A. viscuosus. Briefly: Minimum inhibitory concentration test: optical density at 610 nm of A. viscuosus in tryptic soy broth, 96 well plate. The series is classed as cell-based. The settings on record: 37° C. for 18 hours. On the procedure:
Stock solutions of the zinc ascorbyl phosphate of Example 1, ascorbyl phosphate, zinc oxide, and the zinc-lysine complex were each prepared in water. The concentration of active ingredient in each solution was 0.1 M. Aliquots of each test solution (200 μL) were placed in the first row of a 96 well plate. Serial dilutions of the stock solutions were prepared on the plate by mixing the stock solutions with tryptic soy broth on a 1:1 basis. The concentrations of active ingredient prepared on this basis varied from 50 mM to 0.00488 mM.
A solution of A. viscuosus with an optical density of 0.2 at 610 nm was prepared. Aliquots of the A. viscuosus solution (100 μL) were then added to each test well. Four control wells containing TSB buffer and A. viscuosus solution were prepared. Four blank wells containing TSB buffer alone were also prepared.
The plate was then incubated at 37° C. for 18 hours. The optical density of each well at 610 nm was then recorded using a plate reader.

For series [1] the following is noted: cited from earlier work.
[2] abbreviates: 50 mM active ingredient, lower reading = improved antibacterial effect.

Regarding `CCCCCCCCCCCCCCCC(=O)OC[C@H](O)[C@H]1OC(=O)C(O)=C1O` [Ascorbyl Palmitate], the optical density reading with A. viscuosus (0.005 mM active ingredient) was determined as 0.70; in the series with A. viscuosus (0.00977 mM active ingredient), 0.71; with A. viscuosus (0.195 mM active ingredient), 0.71; in the series with A. viscuosus (0.391 mM active ingredient), 0.69; in the series on A. viscuosus (0.781 mM active ingredient) it was 0.70; in the series with A. viscuosus (1.563 mM active ingredient) it was 0.70. For the same compound, the optical density reading with A. viscuosus (3.125 mM active ingredient) is recorded as 0.68; in the series on A. viscuosus (6.25 mM active ingredient), 0.69; in the series on A. viscuosus (12.5 mM active ingredient), 0.72; with A. viscuosus (25 mM active ingredient) it was 0.68; in the series with A. viscuosus (setting [2]), 0.64.
On to `[O]=[Zn]` [Zinc Oxide, zinc oxide], for which the “solubility under aqueous conditions” value in series [1] was “poorly soluble”. Besides, the optical density reading with A. viscuosus (0.005 mM active ingredient) was 0.68; with A. viscuosus (0.00977 mM active ingredient), 0.68; in the series with A. viscuosus (0.195 mM active ingredient), 0.67; in the series with A. viscuosus (0.391 mM active ingredient), 0.66; in the series with A. viscuosus (0.781 mM active ingredient) it was 0.60; in the series with A. viscuosus (1.563 mM active ingredient), 0.45. Also, the optical density reading in the series on A. viscuosus (3.125 mM active ingredient) worked out at 0.33; in the series on A. viscuosus (6.25 mM active ingredient), 0.29; in the series on A. viscuosus (12.5 mM active ingredient), 0.40; in the series with A. viscuosus (25 mM active ingredient), 0.65; with A. viscuosus (setting [2]) it was 1.55.
zinc-lysine complex: the optical density reading in the series on A. viscuosus (0.005 mM active ingredient) was determined as 0.68; in the series with A. viscuosus (0.00977 mM active ingredient) it was 0.71; in the series on A. viscuosus (0.195 mM active ingredient), 0.69; in the series on A. viscuosus (0.391 mM active ingredient), 0.65; with A. viscuosus (0.781 mM active ingredient), 0.58; with A. viscuosus (1.563 mM active ingredient) it was 0.44. The optical density reading came out at 0.34 in the series on A. viscuosus (3.125 mM active ingredient); 0.15 in the series with A. viscuosus (6.25 mM active ingredient); 0.20 in the series with A. viscuosus (12.5 mM active ingredient); 0.35 in the series with A. viscuosus (25 mM active ingredient); 0.56 with A. viscuosus (setting [2]).
